Test results reported in ChEMBL document CHEMBL3608223, “Quinolizidine alkaloids reduced mortality in EV71-infected mice by compensating for the levels of T cells” (2015).
Activity calls are given as the source filed them. The rule behind the calls is not given here.

Assays:
Mus musculus [1] = experiment: Immunoregulatory activity in […] mouse assessed as increase in CD3+ T cells at 60 mg/kg, ip once daily for 8 days by flow cytometry; assay type: functional, organism-based; details: T-cell
Mus musculus [2] = experiment: Immunoregulatory activity in […] mouse assessed as increase in CD4+ T cells at 60 mg/kg, ip once daily for 8 days by flow cytometry; assay type: functional, organism-based; details: T-cell
Mus musculus [3] = experiment: Immunoregulatory activity in […] mouse assessed as increase in CD8+ T cells at 60 mg/kg, ip once daily for 8 days by flow cytometry; assay type: functional, organism-based; details: T-cell
Mus musculus [4] = experiment: Immunoregulatory activity in […] mouse assessed as reduction in B cells at 60 mg/kg, ip once daily for 8 days by flow cytometry; assay type: functional, organism-based
Mus musculus [5] = experiment: Immunoregulatory activity in […] mouse assessed as reduction in DC cells at 60 mg/kg, ip once daily for 8 days by flow cytometry; assay type: functional, organism-based
Mus musculus [6] = experiment: Immunoregulatory activity in […] mouse assessed as reduction in NK cells at 60 mg/kg, ip once daily for 8 days by flow cytometry; assay type: functional, organism-based
Enterovirus A71 [7] = experiment: Antiviral activity against human enterovirus 71 infected in ICR mouse assessed as increase in survival rate at 15 mg/kg, ip qd for 8 days dosed 2 hrs post infection and measured at 14 days post infection relative to control; assay type: functional, organism-based
Enterovirus A71 [8] = experiment: Antiviral activity against human enterovirus 71 infected in ICR mouse assessed as reduction in viral infection related clinical scores at 15 mg/kg, ip qd for 8 days dosed 2 hrs post infection and measured at 8 days post infection; assay type: functional, organism-based
Enterovirus A71 [9] = experiment: Antiviral activity against human enterovirus 71 infected in ICR mouse assessed as reduction in viral infection-induced phenotypic changes by measuring ruffled hair incidences at 15 mg/kg, ip qd for 8 days dosed 2 hrs post infection and measured at 8 days post infection; assay type: functional, organism-based
Enterovirus A71 [10] = experiment: Antiviral activity against human enterovirus 71 infected in ICR mouse assessed as reduction in viral infection-induced phenotypic changes by measuring paralysis incidences at 15 mg/kg, ip qd for 8 days dosed 2 hrs post infection and measured at 8 days post infection; assay type: functional, organism-based
Enterovirus A71 [11] = experiment: Antiviral activity against human enterovirus 71 infected in ICR mouse assessed as reduction in viral replications in muscle at 15 mg/kg, ip qd for 8 days dosed 2 hrs post infection and measured at 8 days post infection by qRT-PCR method; assay type: functional, organism-based
Enterovirus A71 [12] = experiment: Antiviral activity against human enterovirus 71 infected in ICR mouse assessed as mouse recovery from infection in 15 mg/kg, ip qd for 8 days dosed 2 hrs post infection and measured at 14 days post infection; assay type: functional, organism-based
Mus musculus [13] = experiment: Immunoregulatory activity in […] mouse infected with human enterovirus 71 assessed as increase in CD3+ T cells at 15 mg/kg, ip once daily for 8 days by flow cytometry and measured at 8 days post infection; assay type: functional, organism-based; details: T-cell
Mus musculus [14] = experiment: Immunoregulatory activity in […] mouse infected with human enterovirus 71 assessed as increase in CD4+ T cells at 15 mg/kg, ip once daily for 8 days by flow cytometry and measured at 8 days post infection; assay type: functional, organism-based; details: T-cell
Mus musculus [15] = experiment: Immunoregulatory activity in […] mouse infected with human enterovirus 71 assessed as increase in CD8+ T cells at 15 mg/kg, ip once daily for 8 days by flow cytometry and measured at 8 days post infection; assay type: functional, organism-based; details: T-cell
Enterovirus A71 [16] = experiment: Antiviral activity against human enterovirus 71 infected in ICR mouse assessed as increase in survival rate at 7.5 mg/kg, ip qd for 8 days dosed 2 hrs post infection and measured at 14 days post infection; assay type: functional
Enterovirus A71 [17] = experiment: Antiviral activity against human enterovirus 71 infected in ICR mouse assessed as increase in survival rate at 15 mg/kg, ip qd for 8 days dosed 2 hrs post infection and measured at 14 days post infection; assay type: functional
Enterovirus A71 [18] = experiment: Antiviral activity against human enterovirus 71 infected in ICR mouse assessed as increase in survival rate at 30 mg/kg, ip qd for 8 days dosed 2 hrs post infection and measured at 14 days post infection; assay type: functional
Enterovirus A71 [19] = experiment: Antiviral activity against human enterovirus 71 infected in ICR mouse assessed as reduction in mouse body weight loss at 15 mg/kg, ip qd for 8 days dosed 2 hrs post infection; assay type: functional, organism-based
Enterovirus A71 [20] = experiment: Antiviral activity against human enterovirus 71 infected in ICR mouse assessed as reduction in viral infection realted clinical scores at 15 mg/kg, ip qd for 8 days dosed 2 hrs post infection; assay type: functional, organism-based
Enterovirus A71 [21] = experiment: Antiviral activity against human enterovirus 71 infected in ICR mouse assessed as increase in survival rate at 50 mg/kg, ip qd for 8 days dosed 2 hrs post infection and measured at 14 days post infection; assay type: functional

## O=C1CCC[C@@H]2[C@H]3CCC[N+]4([O-])CCC[C@@H](CN12)[C@@H]34 (stereo partly specified)
Mus musculus [1]
  Activity: Active
Mus musculus [2]
  Activity: Active
Mus musculus [3]
  Activity: Active
Mus musculus [4]
  Activity: Active
Mus musculus [5]
  Activity: Active
Mus musculus [6]
  Activity: Active
Enterovirus A71 [7]
  Activity: Active

## O=C1CCC[C@@H]2[C@H]3CCCN4CCC[C@H](CN12)[C@@H]34
Mus musculus [1]
  Activity: Active
Mus musculus [2]
  Activity: Active
Mus musculus [3]
  Activity: Active
Mus musculus [4]
  Activity: Active
Mus musculus [5]
  Activity: Active
Mus musculus [6]
  Activity: Active
Enterovirus A71 [7]
  Activity: Active

## O=C1C=CC[C@@H]2[C@H]3CCC[N+]4([O-])CCC[C@@H](CN12)[C@@H]34 (stereo partly specified) [OXYSOPHOCARPINE]
Enterovirus A71 [8]
  Activity: Active
Enterovirus A71 [9]
  Activity: Active
Enterovirus A71 [10]
  Activity: Active
Enterovirus A71 [11]
  Activity: Active
Enterovirus A71 [12]
  Activity: Active
Mus musculus [13]
  Activity: Active
Mus musculus [14]
  Activity: Active
Mus musculus [15]
  Activity: Active
Mus musculus [1]
  Activity: Active
Mus musculus [2]
  Activity: Active
Mus musculus [3]
  Activity: Active
Mus musculus [4]
  Activity: Active
Mus musculus [5]
  Activity: Active
Mus musculus [6]
  Activity: Active
Enterovirus A71 [16]
  Activity: 25%
Enterovirus A71 [17]
  Activity: 30%
Enterovirus A71 [18]
  Activity: 25%
Enterovirus A71 [7]
  Activity: Active
Enterovirus A71 [19]
  Activity: Active
Enterovirus A71 [20]
  Activity: Active

## O=C1CCC[C@@H]2[C@H]3CCCN4CCC[C@@H](CN12)[C@@H]34
Mus musculus [1]
  Activity: Active
Mus musculus [2]
  Activity: Active
Mus musculus [3]
  Activity: Active
Mus musculus [4]
  Activity: Active
Mus musculus [5]
  Activity: Active
Mus musculus [6]
  Activity: Active
Enterovirus A71 [7]
  Activity: Active

## O=c1cccc2n1C[C@@H]1CCCN3CCC[C@H]2[C@H]13
Mus musculus [1]
  Activity: Active
Mus musculus [2]
  Activity: Active
Mus musculus [3]
  Activity: Active
Mus musculus [4]
  Activity: Active
Mus musculus [5]
  Activity: Active
Mus musculus [6]
  Activity: Active
Enterovirus A71 [7]
  Activity: Active

## NC(=O)c1ncn([C@@H]2O[C@H](CO)[C@@H](O)[C@H]2O)n1 [RIBAVIRIN]
Enterovirus A71 [21]
  Activity: 15%

## O=C1C=CC[C@@H]2[C@H]3CCCN4CCC[C@@H](CN12)[C@@H]34
Mus musculus [1]
  Activity: Active
Mus musculus [2]
  Activity: Active
Mus musculus [3]
  Activity: Active
Mus musculus [4]
  Activity: Active
Mus musculus [5]
  Activity: Active
Mus musculus [6]
  Activity: Active
Enterovirus A71 [7]
  Activity: Active
